Results on one substance are retold here after patent publication US20220273016A1, “HUMAN MILK OLIGOSACCHARIDES FOR CONTROL OF DIETARY RESPONSE AND METABOLIC PHENOTYPE” (The Regents of the University of California, priority 2019, published 2022).

“Also recorded” adds a separate entry of the source.

One assay deals with c-Fos. In words: c-Fos expression in hindbrain (NTS and AP) after CCK injection. It counts as in vivo, mice. The settings on record: 10% 2′-FL supplementation, CCK i.p. The protocol:
(§1) After 4 weeks on respective diets, 2′-FL sensitivity to the satiating effect of the gut peptide CCK was tested (FIG. 3A). Experiments were performed at the onset of the dark phase. Mice were fasted on wire-bottom cages for 6 h during the light phase. At the onset of the dark phase, CCK (octapeptide, sulfated, Bachem, Torrance, Calif., 100 μl at […]; i.p.) or saline (100 μl; i.p.) was administered. Food was placed in the cage and food intake recorded after 20 min. After 6 weeks of respective diets, c-Fos expression in hindbrain was determined. (FIGS. 3B and 3C). Mice were fasted for 4 h, ip injected with CCK ([…]), and euthanized using deep anesthesia induced with pentobarbital (Fatal Plus, Vortech Pharmaceuticals, Dearborn, Mich., USA; 300 mg/kg; i.p.). The hindbrain was collected and post-fixed in 4% paraformaldehyde (Electron Microscopy Sciences, Hatfield, Pa.). Hindbrains were cryosectioned at 30 μm thickness and stained for c-Fos protein expression in the NTS and AP regions. […] Images were acquired using a confocal microscope (Leica TCS SP8 STED 3×; Leica, Wetzlar, Germany) and quantified in a blinded manner using Imaris Software (Bitplane, Zurich, Switzerland). […]

Assay [1] in a line: Body composition (EchoMRI fat and lean mass) and adipocyte size in mice fed LF or HF with or without 10% 2′-FL. Format: in vivo. The settings on record: 10% 2′-FL supplementation diet, 8 weeks. On the procedure:
Body composition for fat and lean mass (FIGS. 2A and 2B) was analyzed in live animals using EchoMRI-100 ™ from Echo Medical Systems (Houston, Tex.) every two weeks in mice fed an LF or HF with or without 10% 2′-FL supplementation. To measure the size of adipocytes (FIG. 2C), mesenteric adipose tissue collected at euthanasia was fixed in 10% neutral-buffered formalin (Thermo Fisher Scientific, Waltham, Mass.) overnight and transferred to 70% ethanol for one day. Afterwards, the tissues were processed in a routine manner for paraffin sections (Tissue Tek VIP Tissue Processor; Sakura Finetek USA, Torrance, Calif.). Paraffin-embedded sections (5 μm) were cut and stained with H&E (Sigma-Aldrich) for microscopic examination (Olympus BX60, Waltham, Mass.) at 20× magnification. To quantitate adipocyte size (FIG. 2C), the H&E-stained sections were analyzed using the ImageJ software (National Institutes of Health, Bethesda, Md.). For hepatic gene expression of peroxisome proliferator-activated receptor γ (PPAR γ) and sterol regulatory element binding protein-1c (SREBP-1c) (FIGS. 2D and 2E), total RNA from liver samples was extracted via the TRIzol method (Life Technologies, Grand Island, N.Y.). cDNAs were synthesized from […] of purified RNA samples using iScript cDNA synthesis kit (Bio-Rad, Hercules, Calif.) following the manufacturer's protocol. Real-time PCR was performed with the Quantstudio 6 Flex real-time PCR machine using SyberGreen master mix (Life Technologies) for detection. R-Actin and GAPDH were used as housekeeping genes. Genes of interest were analyzed according to the 2^−ΔΔT method and compared with control samples.
For FIGS. 2A-2E, statistical analysis was performed by using Prism software (Prism 8.4; GraphPad Software, La Jolla, Calif.). Data are presented as means±SEMs. ROUT test was used to exclude outliers. Differences were considered significant if P<0.05.

The nature of assay [2]: CCK feeding study (food intake after i.p. CCK). Format: in vivo, mice. The settings on record: HF + 10% 2′-FL, CCK i.p. vs saline, 6 h fast. On the procedure:
as §1

The nature of assay [3]: Gut permeability of cecum in Ussing chambers (FD-4 flux). It counts as in vivo, mice. The settings on record: 10% 2′-FL supplementation diet, 8 weeks, flux at 90 min. On the procedure: (§2) To measure gut permeability (FIGS. 4A and 4B), a section of cecum was opened along the mesenteric border and mounted in Ussing chambers (Physiologic Instruments, San Diego, Calif.), exposing 0.3 cm^2 of tissue surface area to 2.5 ml of oxygenated Krebs-glucose (10 mM) and Krebs-mannitol (10 mM) at 37° C. on the serosal and luminal sides, respectively. The paracellular pathway and transcellular pathway were measured as the flux of FITC-4000 (FD-4; Sigma-Aldrich) and horseradish peroxidase (HRP Type VI; Sigma Aldrich), respectively. FD-4 ([…]) and HRP ([…]) were added to the mucosal chamber, and samples were collected from the serosal chamber every 30 min for 2 h. The concentration of FD-4 was measured via fluorescence at excitation of 485 nm and emission of 538 nm. O-dianisidine substrate was used to detect HRP at absorbance 450 nm. Data are shown as flux at 90 min. Gene expression of IL-22 in the ileum (FIG. 4C) and MCP-1 (FIG. 4E) in adipose tissue were measured as described in Example 2. LBP levels (FIG. 4D) were detected in plasma via enzyme-linked immunosorbent assay according to manufacturer's recommendation (Biometec). […] For FIGS. 4A-4E, statistical analysis was performed by using Prism software (Prism 8.4; GraphPad Software, La Jolla, Calif.). Data are presented as means SEMs. ROUT test was used to exclude outliers. Differences were considered significant if P<0.05.

Assay [4] deals with monocyte chemoattractant protein-1 (MCP-1). In words: Gene expression of MCP-1 in adipose tissue (real-time PCR). Format: in vivo, mice. The settings on record: HF + 10% 2′-FL in drinking water, 6 weeks. The protocol:
as §2
Background: Quantitative PCR measures a nucleic acid by following its amplification.

In assay [5] the test system is sterol regulatory element binding protein-1c (SREBP-1c). Briefly: Hepatic gene expression of SREBP-1c (real-time PCR). Format: in vivo, mice. The settings on record: 10% 2′-FL supplementation diet, 8 weeks. The protocol: (§3) Body composition for fat and lean mass (FIGS. 2A and 2B) was analyzed in live animals using EchoMRI-100 ™ from Echo Medical Systems (Houston, Tex.) every two weeks in mice fed an LF or HF with or without 10% 2′-FL supplementation. To measure the size of adipocytes (FIG. 2C), mesenteric adipose tissue collected at euthanasia was fixed in 10% neutral-buffered formalin (Thermo Fisher Scientific, Waltham, Mass.) overnight and transferred to 70% ethanol for one day. Afterwards, the tissues were processed in a routine manner for paraffin sections (Tissue Tek VIP Tissue Processor; Sakura Finetek USA, Torrance, Calif.). Paraffin-embedded sections (5 μm) were cut and stained with H&E (Sigma-Aldrich) for microscopic examination (Olympus BX60, Waltham, Mass.) at 20× magnification. To quantitate adipocyte size (FIG. 2C), the H&E-stained sections were analyzed using the ImageJ software (National Institutes of Health, Bethesda, Md.). […] Genes of interest were analyzed according to the 2^−ΔΔT method and compared with control samples. […]

Assay [6] concerns lipopolysaccharide-binding protein (LBP). Briefly: Plasma LBP level by enzyme-linked immunosorbent assay. The settings on record: HF + 10% 2′-FL in drinking water, 6 weeks. Format: in vivo, mice. The protocol: as §2
Assay [7] in a line: Body weight and energy intake in mice fed a high-fat diet with 2′-FL in drinking water. The settings on record: 2′-FL 10% (w/v) in drinking water, 6 wk, vs HF group. Format: in vivo, Male C57/BL6 mice. On the procedure:
Animals were maintained and handled in accordance with protocols approved by the Institutional Animal Care and Use Committee (University of California, Davis). Male C57/BL6 mice (n=6/group; 6 week old, Harlan, San Diego, Calif.) were split into three weight-matched groups and fed either a low-fat (LF; 10% kcal as fat), high-fat (HF; 45% kcal as fat), or HF diet with 2′-FL (HF_2′-FL) at 10% (w/v) in drinking water for 6 wk. All animals were housed individually at 22° C. with 12 h:12 h light-dark cycles. Body weight and food intake were measured twice a week. Statistical analysis was performed using Prism software (Prism 8.1.2; GraphPad Software). Six-week HF feeding increased energy intake compared to the LF groups but without statistical significance (FIG. 1B). […] For FIGS. 1A and 1B, data are presented as means±SEMs. ROUT test was used to exclude outliers. Differences were considered significant if P<0.05.

In assay [8] the test system is peroxisome proliferator-activated receptor γ (PPAR γ). Briefly: Hepatic gene expression of PPARγ (real-time PCR). Conditions: 10% 2′-FL supplementation diet, 8 weeks. Format: in vivo, mice. On the procedure: as §3

In the case of 2′-fucosyllactose [2′-FL], the “intestinal satiety signals (c-Fos immunopositive cells in NTS and AP)” value in the assay on c-Fos is given as “restores intestinal satiety signals”. Moreover, in [1], the “adipogenesis (adipocyte size in visceral adipose tissue)” value was “suppresses adipogenesis”, the “adiposity (fat body mass)” value is “reduced adiposity” and the lean mass entry was “preserving lean mass”. In [2], the “sensitivity to the satiating effect of CCK (food intake after 20 min)” value is listed as “restores sensitivity to CCK”. Also, in assay [3], the “paracellular permeability (FD-4 flux in cecum)” value is “decreased paracellular permeability”. In addition, in assay [4], the “expression of inflammatory cytokines in adipocytes (MCP-1 gene expression in adipose tissue)” value is recorded as “significant decrease of MCP-1 gene expression; also recorded: systemically lowered expression of inflammatory cytokines in adipocytes”. The “gene expression of SREBP-1c in the liver” value in [5] was “downregulates”. The “circulating LPB levels” value in assay [6] is reported as “reduced circulating LPB levels”. The energy intake entry in assay [7] (HF diet (45% kcal as fat)) is “suppressed”. Moreover, the body weight result in [7] (HF diet) was “lower body weight compared with the HF group”. In assay [8], the “gene expression of PPAR γ in the liver” value is “downregulates”.
